US20050009840A1 (SUGEN, INC., priority 2003, published 2005)

What follows are compounds tested against T1, HGFR (Homo sapiens, UniProt P08581) (assay: HGFR continuous-coupled spectrophotometric assay). Conditions: at 1 pM; Table 7, library procedure 42; read-out: % Inhibition (percent c-MET inhibition).
T1 construct: purchased Upstate 14-526
Assay type: biochemical

T1 sequence (P08581 974-1390 limits assumed): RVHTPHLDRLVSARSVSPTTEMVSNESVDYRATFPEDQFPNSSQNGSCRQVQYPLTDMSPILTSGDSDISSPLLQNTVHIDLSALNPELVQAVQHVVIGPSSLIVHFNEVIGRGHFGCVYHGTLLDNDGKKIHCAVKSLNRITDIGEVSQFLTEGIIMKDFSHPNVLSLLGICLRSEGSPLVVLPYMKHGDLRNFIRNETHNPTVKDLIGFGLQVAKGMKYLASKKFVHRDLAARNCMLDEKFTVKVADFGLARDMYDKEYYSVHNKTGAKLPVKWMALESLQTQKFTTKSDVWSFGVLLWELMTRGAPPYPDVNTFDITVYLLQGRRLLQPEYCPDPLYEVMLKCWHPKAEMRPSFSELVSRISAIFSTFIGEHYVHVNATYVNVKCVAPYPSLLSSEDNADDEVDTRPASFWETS

Compared with `Nc1ncc(-c2ccc(C(=O)N3CCC(N4CCCC4)CC3)cc2)cc1OCc1ccc(Cl)s1`, `Nc1ncc(-c2ccc(C(=O)N3CCC(N4CCCC4)CC3)cc2)cc1OCc1nsc(Cl)n1` is lower in inhibition at 1 pM: 19% for the first, 5% for the second.

Going from `Nc1ncc(-c2ccc(C(=O)N3CCC(N4CCCC4)CC3)cc2)cc1OCc1ccncc1` to `Cc1cnccc1COc1cc(-c2ccc(C(=O)N3CCC(N4CCCC4)CC3)cc2)cnc1N`, the inhibition at 1 pM rises from 10% to 11%.

First: Nc1ncc(-c2ccc(C(=O)N3CCC(N4CCCC4)CC3)cc2)cc1OCc1ccc(OCc2ccccc2)cc1
Second: Nc1ncc(-c2ccc(C(=O)N3CCC(N4CCCC4)CC3)cc2)cc1OCc1noc(-c2ccccc2)n1
The inhibition at 1 pM of the first is higher: 49% for the first, 16% for the second.

First: COc1ccc(OC)c(COc2cc(-c3ccc(C(=O)N4CCC(N5CCCC5)CC4)cc3)cnc2N)c1
Second: Nc1ncc(-c2ccc(C(=O)N3CCC(N4CCCC4)CC3)cc2)cc1OCc1ccc(F)cc1F
The inhibition at 1 pM of the first is higher: 19% for the first, 18% for the second.

Compared with `Nc1ncc(-c2ccc(C(=O)N3CCC(N4CCCC4)CC3)cc2)cc1OCC1=C(Cl)SNN1`, `Nc1ncc(-c2ccc(C(=O)N3CCC(N4CCCC4)CC3)cc2)cc1OCc1ccc(Cl)cc1Br` is higher in inhibition at 1 pM: 19% for the first, 28% for the second.

Going from `Nc1ncc(-c2ccc(C(=O)N3CCC(N4CCCC4)CC3)cc2)cc1OCc1nc2ccccc2[nH]1` to `Nc1ncc(-c2ccc(C(=O)N3CCC(N4CCCC4)CC3)cc2)cc1OCc1nc(-c2ccccc2)n[nH]1`, the inhibition at 1 pM falls from 4% to -2%.

Compared with `CC(C)Cc1noc(COc2cc(-c3ccc(C(=O)N4CCC(N5CCCC5)CC4)cc3)cnc2N)n1`, `CCc1nc(COc2cc(-c3ccc(C(=O)N4CCC(N5CCCC5)CC4)cc3)cnc2N)no1` is lower in inhibition at 1 pM: 12% for the first, 5% for the second.

Going from `Nc1ncc(-c2ccc(C(=O)N3CCC(N4CCCC4)CC3)cc2)cc1OCc1nc(NC2CC2)c2ccccc2n1` to `Nc1ncc(-c2ccc(C(=O)N3CCC(N4CCCC4)CC3)cc2)cc1OCc1nc(NCCO)c2ccccc2n1`, the inhibition at 1 pM rises from 6% to 7%.

First: CCOC(=O)c1nc(COc2cc(-c3ccc(C(=O)N4CCC(N5CCCC5)CC4)cc3)cnc2N)no1
Second: CNC(=O)c1ccc(OC)c(-c2noc(COc3cc(-c4ccc(C(=O)N5CCC(N6CCCC6)CC5)cc4)cnc3N)n2)c1
The inhibition at 1 pM of the first is lower: 8% for the first, 11% for the second.

Compared with `Nc1ncc(-c2ccc(C(=O)N3CCC(N4CCCC4)CC3)cc2)cc1OCc1nc(-c2ccc(C(=O)N3CCCC3)cc2)no1`, `CC(C)NC(=O)c1ccc(-c2noc(COc3cc(-c4ccc(C(=O)N5CCC(N6CCCC6)CC5)cc4)cnc3N)n2)cc1` is higher in inhibition at 1 pM: 11% for the first, 18% for the second.

In the case of `Nc1ncc(-c2ccc(C(=O)N3CCC(N4CCCC4)CC3)cc2)cc1OCc1nc(-c2cccc(C(=O)Nc3ccc(F)cc3)c2)no1`, the inhibition at 1 pM is reported as 64%.

Same assay, conditions: at 1 μM; Table 8, library procedure 43; read-out: % Inhibition (percent c-MET inhibition)

First: CC1CN(C(=O)c2ccc(-c3cnc(N)c(OCc4ccc(F)cc4F)c3)cc2)CC(C)N1 (stereo not shown)
Second: CC1CN(C(=O)c2ccc(-c3cnc(N)c(OCc4cc(F)ccc4F)c3)cc2)CC(C)N1 (stereo not shown)
The inhibition at 1 µM of the first is lower: 20% for the first, 25% for the second.

Going from `CC1CN(C(=O)c2ccc(-c3cnc(N)c(OCc4ccc(F)c(F)c4)c3)cc2)CC(C)N1` (stereo not shown) to `Cc1cc(COc2cc(-c3ccc(C(=O)N4CC(C)NC(C)C4)cc3)cnc2N)ccc1F` (stereo not shown), the inhibition at 1 µM rises from 14% to 16%.

Going from `CC1CN(C(=O)c2ccc(-c3cnc(N)c(OCc4ccc(OC(F)(F)F)cc4)c3)cc2)CC(C)N1` (stereo not shown) to `CC1CN(C(=O)c2ccc(-c3cnc(N)c(OCc4ccccc4OC(F)(F)F)c3)cc2)CC(C)N1` (stereo not shown), the inhibition at 1 µM falls from 21% to 20%.

Compared with `CC1CN(C(=O)c2ccc(-c3cnc(N)c(OCc4ccc(C(=O)NCc5cccnc5)cc4)c3)cc2)CC(C)N1` (stereo not shown), `CC1CN(C(=O)c2ccc(-c3cnc(N)c(OCc4ccc(C(=O)c5ccccc5)cc4)c3)cc2)CC(C)N1` (stereo not shown) is higher in inhibition at 1 µM: 8% for the first, 35% for the second.

Going from `CC1CN(C(=O)c2ccc(-c3cnc(N)c(OCc4ccc(C(=O)NC5CCN(Cc6ccccc6)C5)cc4)c3)cc2)CC(C)N1` (stereo not shown) to `CCOC(=O)C1CCN(C(=O)c2ccc(COc3cc(-c4ccc(C(=O)N5CC(C)NC(C)C5)cc4)cnc3N)cc2)CC1` (stereo not shown), the inhibition at 1 µM falls from 19% to 12%.

First: CC1CN(C(=O)c2ccc(-c3cnc(N)c(OCc4cccc(C(=O)Nc5ccc(N6CCCCC6)cc5)c4)c3)cc2)CC(C)N1 (stereo not shown)
Second: CC1CN(C(=O)c2ccc(-c3cnc(N)c(OCc4ccc(S(=O)(=O)Nc5ccc(F)cc5)cc4)c3)cc2)CC(C)N1 (stereo not shown)
The inhibition at 1 µM of the first is higher: 28% for the first, 14% for the second.

`CC1CN(C(=O)c2ccc(-c3cnc(N)c(OCc4ccc5nc(C(F)(F)F)cc(OC(C)C)c5c4)c3)cc2)CC(C)N1` (stereo not shown) and `CC1CN(C(=O)c2ccc(-c3cnc(N)c(OCc4ccc(C(F)(F)F)c(F)c4)c3)cc2)CC(C)N1` (stereo not shown) are the same in inhibition at 1 µM: 17% for the first, 17% for the second.

First: CC1CN(C(=O)c2ccc(-c3cnc(N)c(OCc4ccc5ccccc5c4Br)c3)cc2)CC(C)N1 (stereo not shown)
Second: CC1CN(C(=O)c2ccc(-c3cnc(N)c(OCc4cccc5cccnc45)c3)cc2)CC(C)N1 (stereo not shown)
The inhibition at 1 µM of the first is higher: 58% for the first, 17% for the second.

Compared with `CC1CN(C(=O)c2ccc(-c3cnc(N)c(OCc4cc(C(F)(F)F)ccc4Cl)c3)cc2)CC(C)N1` (stereo not shown), `CC1CN(C(=O)c2ccc(-c3cnc(N)c(OCc4cc(F)ccc4C(F)(F)F)c3)cc2)CC(C)N1` (stereo not shown) is lower in inhibition at 1 µM: 25% for the first, 17% for the second.

Going from `CCOC(=O)CCNC(=O)c1cccc(COc2cc(-c3ccc(C(=O)N4CC(C)NC(C)C4)cc3)cnc2N)c1` (stereo not shown) to `CC1CN(C(=O)c2ccc(-c3cnc(N)c(OCc4cccc(Br)c4)c3)cc2)CC(C)N1` (stereo not shown), the inhibition at 1 µM rises from 14% to 21%.

First: CC1CN(C(=O)c2ccc(-c3cnc(N)c(OCc4ccc(-c5ccnc(Br)n5)cc4)c3)cc2)CC(C)N1 (stereo not shown)
Second: CC1CN(C(=O)c2ccc(-c3cnc(N)c(OCc4cccc(-c5ccnc(Br)n5)c4)c3)cc2)CC(C)N1 (stereo not shown)
The inhibition at 1 µM of the first is lower: 17% for the first, 19% for the second.

First: CC1CN(C(=O)c2ccc(-c3cnc(N)c(OCc4ccc(S(N)(=O)=O)cc4)c3)cc2)CC(C)N1 (stereo not shown)
Second: CC1CN(C(=O)c2ccc(-c3cnc(N)c(OCc4ccc(S(=O)(=O)N5CCOCC5)cc4)c3)cc2)CC(C)N1 (stereo not shown)
The inhibition at 1 µM of the first is higher: 16% for the first, 13% for the second.

Compared with `Cc1cc(-c2onc(C)c2COc2cc(-c3ccc(C(=O)N4CC(C)NC(C)C4)cc3)cnc2N)no1` (stereo not shown), `Cc1ccc(F)c(COc2cc(-c3ccc(C(=O)N4CC(C)NC(C)C4)cc3)cnc2N)c1F` (stereo not shown) is higher in inhibition at 1 µM: 25% for the first, 35% for the second.

Compared with `CC1CN(C(=O)c2ccc(-c3cnc(N)c(OCc4ccc(S(=O)(=O)c5ccc(F)cc5)cc4)c3)cc2)CC(C)N1` (stereo not shown), `Cc1ccc(F)cc1COc1cc(-c2ccc(C(=O)N3CC(C)NC(C)C3)cc2)cnc1N` (stereo not shown) is higher in inhibition at 1 µM: 13% for the first, 28% for the second.

Going from `CC1CN(C(=O)c2ccc(-c3cnc(N)c(OCc4nc5ccccc5n4C)c3)cc2)CC(C)N1` (stereo not shown) to `CC1CN(C(=O)c2ccc(-c3cnc(N)c(OCc4nccn4C)c3)cc2)CC(C)N1` (stereo not shown), the inhibition at 1 µM falls from 16% to 12%.

Compared with `CC1CN(C(=O)c2ccc(-c3cnc(N)c(OCc4nc(-c5ccccn5)no4)c3)cc2)CC(C)N1` (stereo not shown), `CC1CN(C(=O)c2ccc(-c3cnc(N)c(OCc4cc(-c5ccccc5)no4)c3)cc2)CC(C)N1` (stereo not shown) is higher in inhibition at 1 µM: 15% for the first, 16% for the second.

Going from `CC1CN(C(=O)c2ccc(-c3cnc(N)c(OCc4c(F)ccc(F)c4Cl)c3)cc2)CC(C)N1` (stereo not shown) to `Cc1ccc(COc2cc(-c3ccc(C(=O)N4CC(C)NC(C)C4)cc3)cnc2N)c(F)c1F` (stereo not shown), the inhibition at 1 µM falls from 51% to 37%.

First: Cc1onc(-c2ccccc2)c1COc1cc(-c2ccc(C(=O)N3CC(C)NC(C)C3)cc2)cnc1N (stereo not shown)
Second: CC1CN(C(=O)c2ccc(-c3cnc(N)c(OCc4c(-c5ccccc5)nn(C)c4Cl)c3)cc2)CC(C)N1 (stereo not shown)
The inhibition at 1 µM of the first is lower: 16% for the first, 18% for the second.

`Cc1ccc(-c2nnc(COc3cc(-c4ccc(C(=O)N5CC(C)NC(C)C5)cc4)cnc3N)o2)cc1` (stereo not shown) was tested, and the inhibition at 1 µM was 14%.
